Values of other authors in US20080269334A1, “Highly Concentrated Pourable Aqueous Solutions Of Potassium Ibuprofen, Their Preparation And Their Use” (ALBEMARLE CORPORATION, priority 2005, published 2008).

In the case of CC(C)Cc1ccc(C(C)C(=O)O)cc1 (stereo not drawn) [ibuprofen], the “solubility of ibuprofen in a solvent system” value (402 mg ibuprofen, 100 mg PEG 600, 3.3 wt % glycerin or propylene glycol, 6.4 wt % water, 38.4 mg KOH, U.S. Pat. Nos. 5,071,643 and 5,360,615) is listed as 67%.

In the case of CC(C)Cc1ccc(C(C)C(=O)[O-])cc1.[K+] (stereo not drawn) [potassium ibuprofen, potassium 2-(4-isobutylphenyl)propionate], the “concentration of dissolved potassium ibuprofen” value (U.S. Pat. No. 5,912,011 Table 1, system with 35.2 wt % ibuprofen, 33.3 wt % PEG 600, 7.3 wt % water) is listed as 24.2 wt % and the “maximum concentration of dissolved potassium ibuprofen shown” value (U.S. Pat. No. 6,387,400, polyethylene glycol solvent, less than about 50 mole % of ibuprofen converted to the potassium salt) is listed as “about 24.2 wt %”.
